Reference: ChEMBL document CHEMBL1201862, “PubChem BioAssay data set” (2004)
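Briefly, cells in 96-well plates were exposed to five compound concentrations for 48 h, and endpoints were estimated by linear interpolation. At the GI50, growth is halved.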 Calls of active or inactive are those of the source. Cut-off read from the data, not from the text of the source: active = GI50 up to about 1.1 µM and inactive = higher.

Tests used:
Experiment in all cases: inhibition of tumour cell growth, NCI panel, 48 h
RPMI-8226 = test system: RPMI-8226
DU-145 = test system: DU-145
UO-31 = test system: UO-31
SW-620 = test system: SW-620
SK-MEL-28 = test system: SK-MEL-28
CCRF-CEM = test system: CCRF-CEM
NCI/ADR-RES = test system: NCI/ADR-RES
NCI-H23 = test system: NCI-H23
HL-60 = test system: HL-60
SK-MEL-5 = test system: SK-MEL-5
SF-295 = test system: SF-295
SN12C = test system: SN12C
HOP-92 = test system: HOP-92
SNB-19 = test system: SNB-19
OVCAR-3 = test system: OVCAR-3
TK-10 = test system: TK-10
BT-549 = test system: BT-549
ACHN = test system: ACHN
HCT-15 = test system: HCT-15
IGROV-1 = test system: IGROV-1

Row | SMILES | GI50 (RPMI-8226) | GI50 (DU-145) | GI50 (UO-31) | GI50 (SW-620) | GI50 (SK-MEL-28) | GI50 (CCRF-CEM) | GI50 (NCI/ADR-RES) | GI50 (NCI-H23) | GI50 (HL-60) | GI50 (SK-MEL-5) | GI50 (SF-295) | GI50 (SN12C) | GI50 (HOP-92) | GI50 (SNB-19) | GI50 (OVCAR-3) | GI50 (TK-10) | GI50 (BT-549) | GI50 (ACHN) | GI50 (HCT-15) [µM] | GI50 (IGROV-1)
1 | O=c1[nH]c(=O)c2ncn(-c3ccc([N+](=O)[O-])cn3)c2[nH]1 | > 100 µM (inactive) | > 100 µM (inactive) | > 100 µM (inactive) | > 100 µM (inactive) | > 100 µM (inactive) | > 100 µM (inactive) | > 100 µM (inactive) | > 100 µM (inactive) | > 100 µM (inactive) | > 100 µM (inactive) | > 100 µM (inactive) | > 100 µM (inactive) | > 100 µM (inactive) | > 100 µM (inactive) | > 100 µM (inactive) | > 100 µM (inactive) | > 100 µM (inactive) | > 100 µM (inactive) | > 100 | 
2 | O=C(O)C(F)(OC(F)(F)C(F)(F)C(F)(F)F)C(F)(F)F (stereo unspecified) | > 100 µM (inactive) | > 100 µM (inactive) | > 100 µM (inactive) | > 100 µM (inactive) | > 100 µM (inactive) |  | > 100 µM (inactive) | > 100 µM (inactive) | > 100 µM (inactive) | > 100 µM (inactive) | > 100 µM (inactive) | > 100 µM (inactive) | > 100 µM (inactive) | > 100 µM (inactive) | > 100 µM (inactive) | > 100 µM (inactive) | > 100 µM (inactive) | > 100 µM (inactive) | > 100 | > 100 µM (inactive)
3 | O=C(/C=C/c1csc(-c2ccccc2)n1)NCc1ccc(C(=O)NCCc2ccccc2)cc1 | > 100 µM (inactive) | 88.5 µM (inactive) | 48.1 µM (inactive) | 74.5 µM (inactive) | 24 µM (inactive) | > 100 µM (inactive) | 11.6 µM (inactive) | 29.7 µM (inactive) |  | 69.5 µM (inactive) | 9.73 µM (inactive) | 44.9 µM (inactive) | 6.85 µM (inactive) | 11.4 µM (inactive) | 63.8 µM (inactive) | 11.7 µM (inactive) | 22.3 µM (inactive) | 19.3 µM (inactive) | 93.5 | 36.6 µM (inactive)
4 | COC(=O)C1C/C(=C/N(C)C)C(=S)N1 (stereo unspecified) | > 100 µM (inactive) | > 100 µM (inactive) | > 100 µM (inactive) | > 100 µM (inactive) | > 100 µM (inactive) | > 100 µM (inactive) | > 100 µM (inactive) | > 100 µM (inactive) |  | > 100 µM (inactive) | > 100 µM (inactive) |  | 54.1 µM (inactive) | > 100 µM (inactive) | > 100 µM (inactive) | > 100 µM (inactive) | > 100 µM (inactive) | > 100 µM (inactive) | > 100 | > 100 µM (inactive)
5 | COC1OC(Cc2nnc(C)o2)C(OCc2ccccc2)C(OCc2ccccc2)C1OCc1ccccc1 (stereo unspecified) | 32.4 µM (inactive) | 40.8 µM (inactive) | 33.1 µM (inactive) | 40.1 µM (inactive) | 22.9 µM (inactive) | 21.7 µM (inactive) | 24.3 µM (inactive) | 19.9 µM (inactive) | 26.2 µM (inactive) | 16.3 µM (inactive) | 18.9 µM (inactive) | 28.3 µM (inactive) | 35.3 µM (inactive) | 57.8 µM (inactive) | 18.3 µM (inactive) |  | 25.7 µM (inactive) | 26.6 µM (inactive) | 35.9 | 13.9 µM (inactive)
6 | O=C(CSc1nc2ccc(I)cc2c(=O)n1Cc1ccccc1)NN1C(=O)c2ccccc2C1=O | 33.3 µM (inactive) | 25.4 µM (inactive) | 2.37 µM (inactive) | 27.5 µM (inactive) | 17.9 µM (inactive) |  | 15.5 µM (inactive) | 18.2 µM (inactive) | 16.7 µM (inactive) | 18.1 µM (inactive) | 10.6 µM (inactive) | 18.8 µM (inactive) | 14.4 µM (inactive) | 16.5 µM (inactive) | 11.6 µM (inactive) | 13.7 µM (inactive) | 15.4 µM (inactive) | 18.9 µM (inactive) | 30.1 | 19.3 µM (inactive)
7 | CC(C)(C)c1cc2c(O)c(c1)COCc1cc(C(C)(C)C)cc(c1O)COCc1cc(C(C)(C)C)cc(c1O)COC2 | 50.4 µM (inactive) | 32.5 µM (inactive) | 35.5 µM (inactive) | > 100 µM (inactive) | > 100 µM (inactive) | 59 µM (inactive) | > 100 µM (inactive) | 46.1 µM (inactive) | 31.1 µM (inactive) | 99.3 µM (inactive) | > 100 µM (inactive) |  | > 100 µM (inactive) | 6.04 µM (inactive) | > 100 µM (inactive) | > 100 µM (inactive) | > 100 µM (inactive) | 63.2 µM (inactive) | > 100 | > 100 µM (inactive)
8 | C=CC(C)(C)c1cc([C@@H]2COc3cc(O)ccc3C2=O)c(O)c(OC)c1OC |  | 14.8 µM (inactive) | 10.9 µM (inactive) | 31.6 µM (inactive) | 19.5 µM (inactive) | 16.6 µM (inactive) | 12.6 µM (inactive) | 10.4 µM (inactive) | 6.75 µM (inactive) | 10.4 µM (inactive) | 12.2 µM (inactive) | 16.3 µM (inactive) | 6.1 µM (inactive) | 13.5 µM (inactive) | 10.5 µM (inactive) | 27.9 µM (inactive) | 10.2 µM (inactive) | 16.2 µM (inactive) | 14 | 
9 | COc1cc(C2SCCCCCCCCCCSC(c3ccc(O)c(OC)c3)SCCCCCCCCCCS2)ccc1O (stereo unspecified) | > 100 µM (inactive) | > 100 µM (inactive) | > 100 µM (inactive) | > 100 µM (inactive) | > 100 µM (inactive) | < 0.01 µM (active) | > 100 µM (inactive) | > 100 µM (inactive) |  | > 100 µM (inactive) | > 100 µM (inactive) | > 100 µM (inactive) | > 100 µM (inactive) | > 100 µM (inactive) |  | > 100 µM (inactive) | > 100 µM (inactive) | > 100 µM (inactive) | > 100 | > 100 µM (inactive)
10 | CC(=O)O[C@@H](c1nccn1Cc1ccccc1)[C@H]1OC(C)(C)O[C@@H]1[C@H]1COC(C)(C)O1 | > 100 µM (inactive) | > 100 µM (inactive) | > 100 µM (inactive) | > 100 µM (inactive) | > 100 µM (inactive) | > 100 µM (inactive) | > 100 µM (inactive) | > 100 µM (inactive) | > 100 µM (inactive) | > 100 µM (inactive) | > 100 µM (inactive) | > 100 µM (inactive) | > 100 µM (inactive) |  | > 100 µM (inactive) | > 100 µM (inactive) | > 100 µM (inactive) | > 100 µM (inactive) | > 100 | > 100 µM (inactive)
11 | O=C(Cn1c2ccc(Br)cc2c2nc3ccccc3nc21)NNC(=S)NC1CCCCC1 | 13.9 µM (inactive) | 15.5 µM (inactive) | 10.5 µM (inactive) | 15.8 µM (inactive) | 14.7 µM (inactive) | 0.794 µM (active) | 17.3 µM (inactive) | 14.4 µM (inactive) |  | 14.2 µM (inactive) | 13.1 µM (inactive) | 21.3 µM (inactive) | 11.8 µM (inactive) | 13.3 µM (inactive) | 10.8 µM (inactive) | 15.4 µM (inactive) | 19.9 µM (inactive) | 16 µM (inactive) | 12 | 10.7 µM (inactive)
12 | COc1ccc2c(c1)CC[C@@H]1[C@@H]2CC[C@]2(C)C(=O)/C(=C/c3ccncc3)C[C@@H]12 | 93.8 µM (inactive) | 38.8 µM (inactive) | 37.2 µM (inactive) | 31.2 µM (inactive) | 33.6 µM (inactive) | > 100 µM (inactive) | 48.8 µM (inactive) | 35.3 µM (inactive) |  | 20.2 µM (inactive) | 22.4 µM (inactive) | 55.6 µM (inactive) | 27.9 µM (inactive) | 44.3 µM (inactive) | 17.8 µM (inactive) | 30.6 µM (inactive) | 67.5 µM (inactive) | 42.5 µM (inactive) | 41.4 | 56.1 µM (inactive)
13 | CC(=O)C1C(=O)C(=O)N(c2ccc(Br)cc2)C1=O (stereo unspecified) |  | > 100 µM (inactive) | > 100 µM (inactive) | > 100 µM (inactive) | > 100 µM (inactive) | > 100 µM (inactive) | > 100 µM (inactive) | > 100 µM (inactive) | > 100 µM (inactive) | > 100 µM (inactive) | > 100 µM (inactive) | > 100 µM (inactive) | > 100 µM (inactive) | > 100 µM (inactive) | > 100 µM (inactive) | > 100 µM (inactive) | > 100 µM (inactive) | > 100 µM (inactive) | > 100 | > 100 µM (inactive)
14 | O=C(NCCCCCCO)c1cccc2cc3ccccc3nc12 | 16.7 µM (inactive) | 17.7 µM (inactive) |  | 29.9 µM (inactive) | 20.6 µM (inactive) | 32.3 µM (inactive) | 36.5 µM (inactive) |  | 25.5 µM (inactive) | 18.1 µM (inactive) | 16.7 µM (inactive) | 24 µM (inactive) | 25.8 µM (inactive) | 15.8 µM (inactive) | 19.9 µM (inactive) | 16.6 µM (inactive) | 16.2 µM (inactive) | 16.4 µM (inactive) | 17.9 | 17.7 µM (inactive)
15 | COc1cc(Nc2nnc3n2S(=O)(=O)c2cc(C)c(Cl)cc2S3)cc(OC)c1 | 2.87 µM (inactive) | 10.7 µM (inactive) | 11.6 µM (inactive) |  | 26 µM (inactive) | 4.29 µM (inactive) | 15.6 µM (inactive) | 6.25 µM (inactive) | 8.69 µM (inactive) | 9.29 µM (inactive) | 21.5 µM (inactive) | 24.8 µM (inactive) | 5.26 µM (inactive) | 13.3 µM (inactive) | 5.19 µM (inactive) | 31.4 µM (inactive) | 5.77 µM (inactive) | 5.21 µM (inactive) | 17.7 | 1.87 µM (inactive)
